Data published in patent US20100267784A1, “NOVEL 4,5-DIHYDROISOXAZOLES WITH ESTROGENIC ACTIVITY” (priority 2007, published 2010).

Experiments:
ERα = target: T1, ERα (Homo sapiens, UniProt P03372); experiment: ERα reporter (luciferase) transactivation assay in transfected HEK293 cells; format: cell-based; set-up: expressed in transfected cells; host or cells: HEK293; conditions: sample concentration 10 μM, 24 hours, mean of at least three independent transfections
T1 sequence (P03372 1-595): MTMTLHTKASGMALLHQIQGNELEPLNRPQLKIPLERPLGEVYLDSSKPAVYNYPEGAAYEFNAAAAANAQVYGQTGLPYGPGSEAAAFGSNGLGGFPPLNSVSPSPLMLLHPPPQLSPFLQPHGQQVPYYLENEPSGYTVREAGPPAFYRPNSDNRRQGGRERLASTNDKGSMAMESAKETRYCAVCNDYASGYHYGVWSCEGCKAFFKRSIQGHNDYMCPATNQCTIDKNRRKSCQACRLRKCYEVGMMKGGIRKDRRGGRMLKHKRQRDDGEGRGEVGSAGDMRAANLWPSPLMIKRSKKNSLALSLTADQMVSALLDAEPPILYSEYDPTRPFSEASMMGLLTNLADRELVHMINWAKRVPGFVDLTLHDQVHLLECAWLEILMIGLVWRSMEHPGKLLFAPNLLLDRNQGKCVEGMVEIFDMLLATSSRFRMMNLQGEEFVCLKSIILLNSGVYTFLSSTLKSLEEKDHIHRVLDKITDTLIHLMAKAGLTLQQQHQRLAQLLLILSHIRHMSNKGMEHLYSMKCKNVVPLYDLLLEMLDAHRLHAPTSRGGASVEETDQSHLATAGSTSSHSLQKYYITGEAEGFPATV
Protocol: (§1) Determination of the Estrogen Activity of the Compounds: Cell Culture, Transfection and Reporter Assays
(§2) All other reagents were of reagent grade from Sigma or Fluka. One day before transfection, HEK293 cells were seeded in 48-well plates (70×10^3 cells per well) in phenol-free Dulbecco's modified Eagle medium supplemented with 5% delipidated fetal bovine serum (Sigma) and antibiotics. After a medium change, the cells were transfected for 4 hours with 5 ng ERα or ERβ expression vector, 75 ng reporter plasmid pERE2TATA-LUC and 20 ng control plasmid pCMVβ by the calcium phosphate method. After transfection, the cells received fresh medium containing either vehicle (0.1% v/v) or test compound (10 μM). After 24 hours, the cells were washed, lysed and luciferase and β-galactosidase activities were determined from 20 μl of lysates with the Victor^2TM reader (PerkinElmer Wallac, Turku, Finland). […] The data are means ±SEM of at least three independent transfections.

ERβ = ERβ (Homo sapiens, UniProt Q92731); experiment: ERβ reporter (luciferase) transactivation assay in transfected HEK293 cells; format: cell-based; set-up: expressed in transfected cells; host or cells: HEK293; conditions: for ERβ receptor activation relative to 10 nM E2 corresponding 100: sample concentration 10 μM, 24 hours, mean of at least three independent transfections; for activation at 10 µM: HEK293, 24 h, read-out: ERβ receptor activation relative to 10 nM E2 corresponding 100, sample concentration 10 μM, mean of at least three independent transfections
Protocol: as §1, §2

Sequence of ERβ (Q92731 whole entry): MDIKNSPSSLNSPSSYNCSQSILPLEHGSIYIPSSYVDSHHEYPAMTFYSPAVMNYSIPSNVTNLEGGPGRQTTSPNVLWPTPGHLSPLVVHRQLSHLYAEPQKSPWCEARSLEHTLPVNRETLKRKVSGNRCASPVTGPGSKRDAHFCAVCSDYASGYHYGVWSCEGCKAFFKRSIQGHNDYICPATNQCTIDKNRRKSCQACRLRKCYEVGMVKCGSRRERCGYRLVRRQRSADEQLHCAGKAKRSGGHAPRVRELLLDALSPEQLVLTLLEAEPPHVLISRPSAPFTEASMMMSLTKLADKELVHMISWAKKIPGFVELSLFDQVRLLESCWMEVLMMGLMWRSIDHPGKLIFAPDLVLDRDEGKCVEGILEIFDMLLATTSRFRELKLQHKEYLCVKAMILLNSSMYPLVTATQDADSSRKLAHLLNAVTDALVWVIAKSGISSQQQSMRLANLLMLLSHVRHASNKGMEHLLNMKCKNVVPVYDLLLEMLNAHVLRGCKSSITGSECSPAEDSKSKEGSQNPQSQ

ERα receptor activation relative to 10 nM E2 corresponding 100 (ERα) | ERβ receptor activation relative to 10 nM E2 corresponding 100 (ERβ) | activation at 10 µM (ERβ) | SMILES
9.2% | −5.8% |  | COc1ccc(CCCC2=NOC(c3ccccc3)C2)cc1 (single isomer, unassigned) [72a, 3-[3-(4-Methoxy-phenyl)-propyl]-5-phenyl-4,5-dihydroisoxazole]
58.6% | 17.7% |  | Oc1ccc(C2=NOC(Cc3ccccc3)C2)cc1 (single isomer, unassigned) [80b, 5-Benzyl-3-(4-hydroxy-phenyl)-4,5-dihydro-isoxazole]
30.8% |  | 33.2% | Oc1ccc(CC2=NOC(c3cccc(O)c3)C2)cc1 (single isomer, unassigned) [83a, 3-(4-Hydroxy-benzyl)-5-(3-hydroxy-phenyl)-4,5-dihydro-isoxazole]
3.6% | 41.3% |  | Oc1ccc(CC2=NOC(c3cccc(O)c3)C2)cc1 (single isomer, unassigned) [83b, 3-(4-Hydroxy-benzyl)-5-(3-hydroxy-phenyl)-4,5-dihydro-isoxazole]
32.9% |  | 12% | Oc1ccc(CCCC2=NOC(c3cccc(O)c3)C2)cc1 (single isomer, unassigned) [89a, 3-[3-(4-Hydroxy-phenyl)-propyl]-5-(3-hydroxy-phenyl)-4,5-dihydro-isoxazole]
27.6% | 7.2% |  | Oc1ccc(CCCC2=NOC(c3cccc(O)c3)C2)cc1 (single isomer, unassigned) [89b, 3-[3-(4-Hydroxy-phenyl)-propyl]-5-(3-hydroxy-phenyl)-4,5-dihydro-isoxazole]
105.2% | 42.4% |  | Oc1ccc(CC2CC(CCc3ccccc3)=NO2)cc1 (single isomer, unassigned) [94b, 5-(4-Hydroxy-benzyl)-3-phenethyl-4,5-dihydro-isoxazole]
20.4% | 2.4% |  | Oc1ccc(CC2CC(CCc3ccccc3O)=NO2)cc1 (single isomer, unassigned) [95a, 5-(4-Hydroxy-benzyl)-3-[2-(2-hydroxy-phenyl)-ethyl]-4,5-dihydro-isoxazole]
6.2% | 0.6% |  | Oc1ccc(CC2CC(CCc3ccccc3O)=NO2)cc1 (single isomer, unassigned) [95b, 5-(4-Hydroxy-benzyl)-3-[2-(2-hydroxy-phenyl)-ethyl]-4,5-dihydro-isoxazole]
76.2% | 12.0% |  | Oc1ccc(CCC2=NOC(Cc3ccc(O)cc3)C2)cc1 (single isomer, unassigned) [96a, 5-(4-Hydroxy-benzyl)-3-[2-(4-hydroxy-phenyl)-ethyl]-4,5-dihydro-isoxazole]
81.4% | 4.1% |  | Oc1ccc(CCC2=NOC(Cc3ccc(O)cc3)C2)cc1 (single isomer, unassigned) [96b, 5-(4-Hydroxy-benzyl)-3-[2-(4-hydroxy-phenyl)-ethyl]-4,5-dihydro-isoxazole]
11.1% | −2.4% |  | Oc1ccccc1CCC1=NOC(Cc2ccc(F)cc2)C1 (single isomer, unassigned) [97b, 5-(4-Fluoro-benzyl)-3-[2-(2-hydroxy-phenyl)-ethyl]-4,5-dihydro-isoxazole]
77.8% | 28.4% |  | Oc1ccc(CCC2=NOC(Cc3ccc(F)cc3)C2)cc1 (single isomer, unassigned) [98a, 5-(4-Fluoro-benzyl)-3-[2-(4-hydroxy-phenyl)-ethyl]-4,5-dihydro-isoxazole]
5.7% | 4.4% |  | Oc1ccc(CCC2=NOC(Cc3ccc(F)cc3)C2)cc1 (single isomer, unassigned) [98b, 5-(4-Fluoro-benzyl)-3-[2-(4-hydroxy-phenyl)-ethyl]-4,5-dihydro-isoxazole]
67.1% | 4.7% |  | Oc1ccc(CC2CC(CCCc3ccccc3)=NO2)cc1 (single isomer, unassigned) [100a, 5-(4-Hydroxy-benzyl)-3-(3-phenyl-propyl)-4,5-dihydro-isoxazole]

The next lines start with the molecule.

SMILES | ERα receptor activation relative to 10 nM E2 corresponding 100 (ERα) | ERβ receptor activation relative to 10 nM E2 corresponding 100 (ERβ) | activation at 10 µM (ERβ)
COc1ccc(CCCC2=NOC(c3ccccc3)C2)cc1 (single isomer, unassigned) [72b, 3-[3-(4-Methoxy-phenyl)-propyl]-5-phenyl-4,5-dihydroisoxazole] | 1.2% | −9.0% | 
Oc1ccc(C2=NOC(Cc3ccccc3)C2)cc1 (single isomer, unassigned) [80a, 5-Benzyl-3-(4-hydroxy-phenyl)-4,5-dihydro-isoxazole] | 52.0% |  | 28.5%
Oc1ccccc1CCC1=NOC(Cc2ccccc2)C1 (single isomer, unassigned) [91a, 5-Benzyl-3-[2-(2-hydroxy-phenyl)-ethyl]-4,5-dihydro-isoxazole] | 104.8% |  | 19.2%
Oc1ccccc1CCC1=NOC(Cc2ccccc2)C1 (single isomer, unassigned) [91b, 5-Benzyl-3-[2-(2-hydroxy-phenyl)-ethyl]-4,5-dihydro-isoxazole] | 39.7% | 30.5% | 
Oc1cccc(CCC2=NOC(Cc3ccccc3)C2)c1 (single isomer, unassigned) [92a, 5-Benzyl-3-[2-(3-hydroxy-phenyl)-ethyl]-4,5-dihydro-isoxazole] | 19.2% | 6.7% | 
Oc1cccc(CCC2=NOC(Cc3ccccc3)C2)c1 (single isomer, unassigned) [92b, 5-Benzyl-3-[2-(3-hydroxy-phenyl)-ethyl]-4,5-dihydro-isoxazole] | 15.7% | −2.5% | 
Oc1ccc(CC2CC(CCc3ccccc3)=NO2)cc1 (single isomer, unassigned) [94a, 5-(4-Hydroxy-benzyl)-3-phenethyl-4,5-dihydro-isoxazole] | 34.2% | 9.1% | 
Oc1ccccc1CCC1=NOC(Cc2ccc(F)cc2)C1 (single isomer, unassigned) [97a, 5-(4-Fluoro-benzyl)-3-[2-(2-hydroxy-phenyl)-ethyl]-4,5-dihydro-isoxazole] | 82.0% | 3.4% | 
Oc1ccc(CCCC2=NOC(Cc3ccccc3)C2)cc1 (single isomer, unassigned) [99a, 5-Benzyl-3-[3-(4-hydroxy-phenyl)-propyl]-4,5-dihydro-isoxazole] | 153.7% | 78.2% | 
Oc1ccc(CCCC2=NOC(Cc3ccccc3)C2)cc1 (single isomer, unassigned) [99b, 5-Benzyl-3-[3-(4-hydroxy-phenyl)-propyl]-4,5-dihydro-isoxazole] | 75.1% | 19.8% | 
Oc1ccc(CC2CC(CCCc3ccccc3)=NO2)cc1 (single isomer, unassigned) [100b, 5-(4-Hydroxy-benzyl)-3-(3-phenyl-propyl)-4,5-dihydro-isoxazole] | 97.2% | 17.0% | 
Oc1ccc(CCCC2=NOC(Cc3ccc(O)cc3)C2)cc1 (single isomer, unassigned) [101a, 5-(4-Hydroxy-benzyl)-3-[3-(4-hydroxy-phenyl)-propyl]-4,5-dihydro-isoxazole] | 14.4% | −0.9% | 
